Results reported in patent US7485750B2, “Hydroxamic acid derivatives and the preparation method thereof” (Amorepacific Corporation, priority 2005, dated 2009).

Legend:
[1] = tested on: Human keratinocyte (HaCaT) cell line; assay: Antioxidative effect: lipid peroxidation assay (MDA, 4-HNE) in t-BHP-treated HaCaT cells; assay type: cell-based; design: unit not given here; settings: control without treatment = 100
Protocol: This example illustrates the antioxidative effect of the hydroxamic acid derivatives obtained in Examples 1 to 24, in comparison with tocoperol and EGCG (EpiGalloCatechin Gallate). Human keratinocyte (HaCaT) cell line was divided into 1.0×10^6 per 60 mm dish, and was cultured for 1 day at 37° C., 5% CO2, using DMEM (FBS 10%) medium containing penicillin/streptomycin, and then was treated with 10^−4 mol % of hydroxamic acid derivatives. The same treatment was performed with tocoperol and EGCG, as positive controls, of the same concentration. The next day, HaCaT cells were treated with 4 mM of BHP (t-butyl hydroperoixe), and were cultured for 4 hours at 37° C., 5% CO2, and the cells were obtained. Lysis of the cells was performed on the cells by way of repeating the freeze/thawing process. The following experiment was performed according to the method presented in the assay kit.
Cabiochem Lipid peroxidation assay kit (Cat. No. 437634) was used as reagent in the present invention, and lipid peroxidation was measured using the principle that peroxidation products of ester which relate to long chain unsaturated fatty acid, such as malondialdehyde (MDA), and 4-hydroxyalkenal, i.e., 4-hydroxy-2(E)-nonenal (4-HNE), react with the reagent to form a stable compound at 586 nm.

Human fibroblasts = assay: Collagen biosynthesis: procollagen type (I) ELISA in human fibroblasts; assay type: cell-based; settings: 10^-4 M in serum-free medium, 24 hours, relative value, control group = 100
Protocol: Human fibroblasts were seeded into 24-well plates at 1×10^5 cells per well and then cultured to 90% of growth. The fibroblastes were then cultured in serum-free DMEM for 24 hours and treated with 10^−4 M of the hydroxamic acid derivatives of Examples 1-24, tocoperol and EGCG, in serum-free medium, and then incubated in a CO2 incubator for 24 hours.
For each supernatant, procollagen production was measured with procollagen type (I) ELISA kit. The results are shown in Table 2, in which collagen biosynthesis was evaluated as a relative value, in consideration that the value of the control group with no material treated is 100.

mice = assay: Contraction of skin pores in mice after topical application; assay type: in vivo; settings: 0.5 ml of 1% solution in 1,3-butylene glycol:ethanol=7:3 applied for 1 day, back biopsied 24 hours later, control group 65
Protocol: The compounds of Examples 1-24 were dissolved in solvent (1,3-butylene glycol:ethanol=7:3) to give 1% solution of test samples. To forty-six (46) mice, 0.5 ml of the test sample solution was applied for 1 day, 24 hours later, their back part was biopsied. The epidermis was separated, then soaked in 0.5% acetic acid, then fixed in 10% formalin, and cut vertically by […]. After dying with hematoxylin and eosin, the size of skin pore was measured using Mechanical eyepiece micrometer.

[2] = HaCaT cells pretreated with 10^-4 mol % test material, next day 4 mM t-BHP for 4 hours, lipid peroxidation at 586 nm

SMILES | MDA, HNE [1, 2] | Collagen biosynthesis (%) (Human fibroblasts) | Size of skin pore (mice) [µm] | MDA, HNE ([1]; HaCaT cells treated with 4 mM t-BHP alone for 4 hours)
O=C(O[C@@H]1Cc2c(O)cc(O)cc2O[C@@H]1c1cc(O)c(O)c(O)c1)c1cc(O)c(O)c(O)c1 [EGCG, EpiGalloCatechin Gallate, reference compound] | 230 | 120 | 60 | –
COc1ccc(C(=O)Nc2ccc(C(=O)NO)cc2)cc1OC [Example 1, N-[4-(N-hydroxycarbamoyl)phenyl][3,4-dimethoxyphenyl]carboxyamide] | 190 | 123 | 56 | –
CCOc1ccc(C(=O)Nc2ccc(C(=O)NO)cc2)cc1OCC [Example 2, N-[4-(N-hydroxycarbamoyl)phenyl][3,4-diethoxyphenyl]carboxyamide] | 200 | 131 | 50 | –
CC(C)Oc1ccc(C(=O)Nc2ccc(C(=O)NO)cc2)cc1OC(C)C [Example 3, N-[4-(N-hydroxycarbamoyl)phenyl][3,4-diisopropoxyphenyl]carboxyamide] | 211 | 122 | 54 | –
CCCOc1ccc(C(=O)Nc2ccc(C(=O)NO)cc2)cc1OCCC [Example 4, N-[4-(N-hydroxycarbamoyl)phenyl][3,4-dipropoxyphenyl]carboxyamide] | 189 | 111 | 52 | –
CCCCOc1ccc(C(=O)Nc2ccc(C(=O)NO)cc2)cc1OCCCC [Example 5, N-[4-(N-hydroxycarbamoyl)phenyl][3,4-dibutoxyphenyl]carboxyamide] | 211 | 121 | 53 | –
CC(C)(C)Oc1ccc(C(=O)Nc2ccc(C(=O)NO)cc2)cc1OC(C)(C)C [Example 6, N-[4-(N-hydroxycarbamoyl)phenyl][3,4-di-tert-butoxyphenyl]carboxyamide] | 231 | 135 | 54 | –
COc1ccc(C(=O)Nc2ccc(C(=O)N(C)O)cc2)cc1OC [Example 7, [4-((3,4-dimethoxyphenyl)carbonylamino)phenyl]-N-hydroxy-N-methyl carboxyamide] | 220 | 111 | 55 | –
CCOc1ccc(C(=O)Nc2ccc(C(=O)N(C)O)cc2)cc1OCC [Example 8, [4-((3,4-diethoxyphenyl)carbonylamino)phenyl]-N-hydroxy-N-methyl carboxyamide] | 190 | 112 | 50 | –
CC(C)Oc1ccc(C(=O)Nc2ccc(C(=O)N(C)O)cc2)cc1OC(C)C [Example 9, [4-((3,4-diisopropoxyphenyl)carbonylamino)phenyl]-N-hydroxy-N-methyl carboxyamide] | 187 | 123 | 51 | –
CCCOc1ccc(C(=O)Nc2ccc(C(=O)N(C)O)cc2)cc1OCCC [Example 10, [4-((3,4-dipropoxyphenyl)carbonylamino)phenyl]-N-hydroxy-N-methyl carboxyamide] | 140 | 126 | 52 | –
CCCCOc1ccc(C(=O)Nc2ccc(C(=O)N(C)O)cc2)cc1OCCCC [Example 11, [4-((3,4-dibutoxyphenyl)carbonylamino)phenyl]-N-hydroxy-N-methylcarboxyamide] | 198 | 121 | 56 | –
CN(O)C(=O)c1ccc(NC(=O)c2ccc(OC(C)(C)C)c(OC(C)(C)C)c2)cc1 [Example 12, [4-((3,4-di-tert-butoxyphenyl)carbonylamino)phenyl]-N-hydroxy-N-methyl carboxyamide] | 176 | 123 | 54 | –
COc1ccc(C(=O)Nc2ccc(CC(=O)NO)cc2)cc1OC [Example 13, N-(4-((hydroxycarbamoyl)methyl)phenyl)-3,4-dimethoxy benzamide] | 150 | 111 | 55 | –
CCOc1ccc(C(=O)Nc2ccc(CC(=O)NO)cc2)cc1OCC [Example 14, N-(4-((hydroxycarbamyl)methyl)phenyl)-3,4-diethoxy benzamide] | 220 | 121 | 50 | –
CC(C)Oc1ccc(C(=O)Nc2ccc(CC(=O)NO)cc2)cc1OC(C)C [Example 15, N-(4-((hydroxycarbamoyl)methyl)phenyl)-3,4-diisopropoxy benzamide] | 213 | 134 | 51 | –
CCCOc1ccc(C(=O)Nc2ccc(CC(=O)NO)cc2)cc1OCCC [Example 16, N-(4-((hydroxycarbamoyl)methyl)phenyl)-3,4-dipropoxy benzamide] | 199 | 131 | 52 | –
CCCCOc1ccc(C(=O)Nc2ccc(CC(=O)NO)cc2)cc1OCCCC [Example 17, N-(4-((hydroxycarbamoyl)methyl)phenyl)-3,4-dibutoxy benzamide] | 200 | 123 | 56 | –
CC(C)(C)Oc1ccc(C(=O)Nc2ccc(CC(=O)NO)cc2)cc1OC(C)(C)C [Example 18, N-(4-((hydroxycarbamoyl)methyl)phenyl)-3,4-di-tert-butoxy benzamide] | 232 | 122 | 57 | –
COc1ccc(C(=O)Nc2ccc(CC(=O)N(C)O)cc2)cc1OC [Example 19] | 212 | 142 | 54 | –
CCOc1ccc(C(=O)Nc2ccc(CC(=O)N(C)O)cc2)cc1OCC [Example 20] | 196 | 123 | 51 | –
CC(C)Oc1ccc(C(=O)Nc2ccc(CC(=O)N(C)O)cc2)cc1OC(C)C [Example 21] | 190 | 121 | 55 | –
CCCOc1ccc(C(=O)Nc2ccc(CC(=O)N(C)O)cc2)cc1OCCC [Example 22] | 188 | 122 | 52 | –
CCCCOc1ccc(C(=O)Nc2ccc(CC(=O)N(C)O)cc2)cc1OCCCC [Example 23] | 188 | 123 | 51 | –
CN(O)C(=O)Cc1ccc(NC(=O)c2ccc(OC(C)(C)C)c(OC(C)(C)C)c2)cc1 [Example 24] | 197 | 131 | 50 | –
Cc1c(C)c2c(c(C)c1O)CC[C@@](C)(CCC[C@H](C)CCC[C@H](C)CCCC(C)C)O2 [Tocoperol, tocoperol, reference compound] | 250 | 113 | 64 | –
CC(C)(C)OO [t-BHP, t-butyl hydroperoixe, reference compound] | – | – | – | 320
